“And” between values parts separate entries of the source, which are not always exact repeats. Equal values may be shown once. Inconclusive results and toxic doses are left out.
Tested on: L1210 leukemia ip in BDF1 mice, survival T/C
Experiment: NCI In Vivo Anticancer Drug Screen. Data for tumor model L1210 Leukemia (intraperitoneal) in B6D2F1 (BDF1) mice
Conditions: endpoint: mean survival time, higher = longer survival
Method in brief: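 Tumor was transplanted into mice, which were then dosed with test compound or vehicle alone. Survival was recorded for each group, and the treated figure was expressed relative to the control figure.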

[1] = dose: 50.0 mg/kg/injection, schedule: Q01DX009 (ip), vehicle: Klucel (hydroxypropylcellulose) (HPC)
[2] = dose: 100.0 mg/kg/injection, schedule: Q01DX009 (ip), vehicle: Klucel (hydroxypropylcellulose) (HPC)
[3] = dose: 200.0 mg/kg/injection, schedule: Q01DX009 (ip), vehicle: Klucel (hydroxypropylcellulose) (HPC)
[4] = dose: 400.0 mg/kg/injection, schedule: Q01DX009 (ip), vehicle: Klucel (hydroxypropylcellulose) (HPC)
[5] = dose: 100.0 mg/kg/injection, schedule: Q04DX003 (ip), vehicle: Klucel (hydroxypropylcellulose) (HPC)
[6] = dose: 200.0 mg/kg/injection, schedule: Q04DX003 (ip), vehicle: Klucel (hydroxypropylcellulose) (HPC)
[7] = dose: 100.0 mg/kg/injection, schedule: Q01DX001 (ip), vehicle: saline with Tween-80
[8] = dose: 100.0 mg/kg/injection, schedule: Q04DX003 (ip), vehicle: saline with Tween-80
[9] = dose: 200.0 mg/kg/injection, schedule: Q01DX001 (ip), vehicle: saline with Tween-80
[10] = dose: 200.0 mg/kg/injection, schedule: Q01DX009 (ip), vehicle: saline with Tween-80
[11] = dose: 200.0 mg/kg/injection, schedule: Q04DX003 (ip), vehicle: saline with Tween-80
[12] = dose: 400.0 mg/kg/injection, schedule: Q04DX003 (ip), vehicle: saline with Tween-80
[13] = dose: 100.0 mg/kg/injection, schedule: Q01DX001 (ip), vehicle: saline
[14] = dose: 200.0 mg/kg/injection, schedule: Q01DX001 (ip), vehicle: saline
[15] = dose: 400.0 mg/kg/injection, schedule: Q04DX003 (ip), vehicle: Klucel (hydroxypropylcellulose) (HPC)
[16] = dose: 200.0 mg/kg/injection, schedule: Q01DX009 (ip), vehicle: saline
[17] = dose: 400.0 mg/kg/injection, schedule: Q01DX009 (ip), vehicle: saline
[18] = dose: 100.0 mg/kg/injection, schedule: Q04DX003 (ip), vehicle: saline
[19] = dose: 200.0 mg/kg/injection, schedule: Q04DX003 (ip), vehicle: saline
[20] = dose: 400.0 mg/kg/injection, schedule: Q04DX003 (ip), vehicle: saline
[21] = dose: 100.0 mg/kg/injection, schedule: Q01DX001 (ip), vehicle: carboxymethylcellulose (CMC)
[22] = dose: 200.0 mg/kg/injection, schedule: Q01DX001 (ip), vehicle: carboxymethylcellulose (CMC)

SMILES: Cc1cc(C)c([S-])c(C)c1.[Cu+]
- T/C (dose: 18.8 mg/kg/injection, schedule: Q01DX001 (ip), vehicle: saline): 98 % of control

SMILES: Cc1ccc(S(=O)(=O)NC(=O)c2c3ccccc3cc3ccccc23)cc1
- T/C (dose: 100.0 mg/kg/injection, schedule: Q01DX001 (ip), vehicle: acetone): 104 % of control
- T/C (dose: 200.0 mg/kg/injection, schedule: Q01DX001 (ip), vehicle: acetone): 104 % of control
- T/C (dose: 400.0 mg/kg/injection, schedule: Q01DX001 (ip), vehicle: acetone): 96 % of control

SMILES: O=c1c(Br)c[nH]cc1Br
- T/C (dose: 12.5 mg/kg/injection, schedule: Q01DX009 (ip), vehicle: Klucel (hydroxypropylcellulose) (HPC)): 91 % of control
- T/C (dose: 25.0 mg/kg/injection, schedule: Q01DX009 (ip), vehicle: Klucel (hydroxypropylcellulose) (HPC)): 111 % of control
- T/C [1]: 91 % of control
- T/C [2]: 98 % of control

SMILES: COc1cccc(OC)c1OC(=O)Nc1cccc(C(F)(F)F)c1
- T/C [2]: 101 % of control
- T/C [3]: 98 % of control
- T/C [4]: 90 % of control

SMILES: CCCCCCCCCCCCSC(=O)CCC(=O)O
- T/C (dose: 50.0 mg/kg/injection, schedule: Q01DX009 (ip), vehicle: other): 102 % of control
- T/C (dose: 100.0 mg/kg/injection, schedule: Q01DX009 (ip), vehicle: other): 108 % of control
- T/C [5]: 97 % of control
- T/C (dose: 200.0 mg/kg/injection, schedule: Q01DX009 (ip), vehicle: other): 97 % of control
- T/C [6]: 103 % of control

SMILES: Cc1ccccc1C(O)c1cnc(C)n1Cc1ccccc1 (stereo not given)
- T/C (dose: 50.0 mg/kg/injection, schedule: Q04DX002 (ip), vehicle: saline with Tween-80): 105 % of control and 88 % of control
- T/C [7]: 102 % of control
- T/C (dose: 100.0 mg/kg/injection, schedule: Q01DX009 (ip), vehicle: saline with Tween-80): 100 % of control and 87 % of control
- T/C [8]: 92 % of control
- T/C [9]: 90 % of control
- T/C [10]: 103 % of control
- T/C [11]: 92 % of control
- T/C (dose: 400.0 mg/kg/injection, schedule: Q01DX001 (ip), vehicle: saline with Tween-80): 93 % of control
- T/C (dose: 400.0 mg/kg/injection, schedule: Q01DX009 (ip), vehicle: saline with Tween-80): 102 % of control
- T/C [12]: 97 % of control

SMILES: CCSCC1OC(n2cnc3c(N)ncnc32)CC1O (stereo not given)
- T/C [13]: 98 % of control
- T/C [14]: 104 % of control
- T/C (dose: 400.0 mg/kg/injection, schedule: Q01DX001 (ip), vehicle: saline): 92 % of control

SMILES: CC(C)(CBr)COC(=O)Nc1cccc2ccccc12
- T/C (dose: 50.0 mg/kg/injection, schedule: Q01DX009 (ip), vehicle: saline with Tween-80): 91 % of control
- T/C [10]: 87 % of control

SMILES: NC(=O)CC(NC(=O)OCc1ccccc1)C(N)=O (stereo not given)
- T/C [5]: 93 % of control
- T/C [6]: 87 % of control
- T/C [15]: 90 % of control

SMILES: Clc1ccc(Cl)c(-c2csc(-c3cccnc3)n2)c1
- T/C (dose: 100.0 mg/kg/injection, schedule: Q01DX009 (ip), vehicle: saline): 100 % of control
- T/C [16]: 100 % of control
- T/C [17]: 89 % of control

SMILES: Cc1c2c(cc3c1OCN(C1CCCCC1)C3)CN(C1CCCCC1)CO2
- T/C [13]: 98 % of control
- T/C [14]: 90 % of control

SMILES: CCOc1cc[n+](C)c2ccc(C)cc12
- T/C (dose: 6.25 mg/kg/injection, schedule: Q04DX002 (ip), vehicle: saline with Tween-80): 102 % of control
- T/C (dose: 12.5 mg/kg/injection, schedule: Q04DX002 (ip), vehicle: saline with Tween-80): 98 % of control

SMILES: [O-]/[N+](=C\c1ccc(/C=[N+](\[O-])c2ccccc2)cc1)c1ccccc1
- T/C (dose: 5.0 mg/kg/injection, schedule: Q01DX001 (ip), vehicle: saline): 97 % of control
- T/C (dose: 10.0 mg/kg/injection, schedule: Q01DX001 (ip), vehicle: saline): 95 % of control
- T/C (dose: 20.0 mg/kg/injection, schedule: Q01DX001 (ip), vehicle: saline): 97 % of control
- T/C (dose: 40.0 mg/kg/injection, schedule: Q01DX001 (ip), vehicle: saline): 92 % of control
- T/C (dose: 80.0 mg/kg/injection, schedule: Q01DX001 (ip), vehicle: saline): 97 % of control

SMILES: Nn1cn[nH]c1=S
- T/C [18]: 98 % of control
- T/C [19]: 103 % of control
- T/C [20]: 98 % of control

SMILES: CN(C)c1ccccc1C(=O)N/N=C\c1ccc(Cl)cc1
- T/C (dose: 100.0 mg/kg/injection, schedule: Q04DX002 (ip), vehicle: gum acacia): 96 % of control
- T/C (dose: 200.0 mg/kg/injection, schedule: Q04DX002 (ip), vehicle: gum acacia): 107 % of control
- T/C (dose: 400.0 mg/kg/injection, schedule: Q04DX002 (ip), vehicle: gum acacia): 100 % of control

SMILES: COc1cccc(N=C(N)N=C(N)N)c1
- T/C (dose: 75.0 mg/kg/injection, schedule: Q01DX001 (ip), vehicle: saline): 101 % of control
- T/C (dose: 150.0 mg/kg/injection, schedule: Q01DX001 (ip), vehicle: saline): 101 % of control
- T/C (dose: 300.0 mg/kg/injection, schedule: Q01DX001 (ip), vehicle: saline): 107 % of control

SMILES: O=c1[nH]cnc2cc(Cl)ccc12
- T/C [1]: 91 % of control
- T/C [2]: 102 % of control
- T/C [3]: 100 % of control

SMILES: Cc1cc(NC(=O)NCc2ccc([N+](=O)[O-])cc2)ccc1S(=O)(=O)F
- T/C [8]: 100 % of control
- T/C [11]: 95 % of control
- T/C [12]: 92 % of control

SMILES: CC(=O)OCCC/C(=C\c1ccc(Br)cc1)[N+](=O)[O-]
- T/C [21]: 97 % of control
- T/C [22]: 97 % of control

SMILES: CC1CCC2(C(=O)O)CCC3(C)C(=CCC4C5(C)CC(O)C(O)C(C)(C(=O)O)C5CCC43C)C2C1(C)O (stereo not given)
- T/C (dose: 100.0 mg/kg/injection, schedule: Q01DX001 (ip), vehicle: alkali diluted with saline): 94 % of control
- T/C [7]: 97 % of control
- T/C (dose: 200.0 mg/kg/injection, schedule: Q01DX001 (ip), vehicle: alkali diluted with saline): 100 % of control
- T/C [9]: 89 % of control

SMILES: CC(C)(C)OC(=O)NC1CCCCC1
- T/C (dose: 100.0 mg/kg/injection, schedule: Q04DX002 (ip), vehicle: saline with Tween-80): 111 % of control
- T/C (dose: 200.0 mg/kg/injection, schedule: Q04DX002 (ip), vehicle: saline with Tween-80): 101 % of control
- T/C (dose: 400.0 mg/kg/injection, schedule: Q04DX002 (ip), vehicle: saline with Tween-80): 104 % of control

SMILES: CCOC(=O)c1[nH]cnc1/N=N/N(C)CCO
- T/C [1]: 122 % of control
- T/C (dose: 90.0 mg/kg/injection, schedule: Q01DX009 (ip), vehicle: Klucel (hydroxypropylcellulose) (HPC)): 116 % of control
- T/C [21]: 115 % of control
- T/C [2]: 117 % of control
- T/C [5]: 109 % of control and 115 % of control
- T/C (dose: 175.0 mg/kg/injection, schedule: Q01DX009 (ip), vehicle: saline): 152 % of control
- T/C [22]: 102 % of control
- T/C [6]: 108 % of control and 121 % of control
- T/C (dose: 400.0 mg/kg/injection, schedule: Q01DX001 (ip), vehicle: carboxymethylcellulose (CMC)): 107 % of control
- T/C [4]: 150 % of control and 154 % of control
- T/C [15]: 124 % of control
- T/C (dose: 600.0 mg/kg/injection, schedule: Q01DX009 (ip), vehicle: saline): 154 % of control

SMILES: O=C(NNC(=O)c1ccc(Br)cc1)c1ccc(Cl)cc1
- T/C (dose: 100.0 mg/kg/injection, schedule: Q01DX001 (ip), vehicle: Klucel (hydroxypropylcellulose) (HPC)): 100 % of control
- T/C [2]: 91 % of control
- T/C (dose: 200.0 mg/kg/injection, schedule: Q01DX001 (ip), vehicle: Klucel (hydroxypropylcellulose) (HPC)): 92 % of control
- T/C [3]: 93 % of control
- T/C (dose: 400.0 mg/kg/injection, schedule: Q01DX001 (ip), vehicle: Klucel (hydroxypropylcellulose) (HPC)): 92 % of control

SMILES: Cc1nn(-c2ccc(Cl)cc2)c(C)c1N=O
- T/C (dose: 25.0 mg/kg/injection, schedule: Q01DX001 (ip), vehicle: saline with Tween-80): 98 % of control
- T/C (dose: 50.0 mg/kg/injection, schedule: Q01DX001 (ip), vehicle: saline with Tween-80): 95 % of control
- T/C [7]: 104 % of control

SMILES: O=C(Cl)OCCOCCOC(=O)Cl
- T/C [18]: 86 % of control
- T/C [16]: 89 % of control
- T/C [19]: 94 % of control
- T/C [17]: 90 % of control
- T/C [20]: 92 % of control

— PubChem BioAssay AID248 (DTP/NCI, 2004)
